This assay concerns MV-4-11 cells. Put plainly: Gene expression microarray analysis (Affymetrix PrimeView) and GSEA. The format is cell-based, human. As to conditions: MV-4-11 cells, 48 hours. Also noted: RFU PODN (11730768_x_at) / Fold change /veh PODN (11730768_x_at) / RFU LINC00158 (11744669_a_at) / Fold change /veh LINC00158 (11744669_a_at) / RFU DUSP10 (11751237_a_at) / Fold change /veh DUSP10 (11751237_a_at) / RFU ID3 (11757404_x_at) / Fold change /veh ID3 (11757404_x_at) / RFU PLEKHG5 (11737974_s_at) / Fold change /veh PLEKHG5 (11737974_s_at) / RFU LRRC4B (11730491_at) / Fold change /veh LRRC4B (11730491_at) / RFU GIMAP4 (11747438_a_at) / Fold change /veh GIMAP4 (11747438_a_at) / RFU KRT8 (11758183_x_at) / Fold change /veh KRT8 (11758183_x_at) / RFU CNN1 (11734310_a_at) / Fold change /veh CNN1 (11734310_a_at) / RFU VPS37D (11726825_at) / Fold change /veh VPS37D (11726825_at) / RFU C10orf10 (11716522_x_at) / Fold change /veh C10orf10 (11716522_x_at) / RFU KIR2DL2 /// KIR2DL4 /// KIR2DL5A /// KIR2DL5B /// KIR2DS1 /// KIR2DS2 /// KIR2DS3 /// KIR2DS4 /// KIR3DL3 /// KIR3DL3 /// KIR3DS1 (11738374_at) / Fold change /veh KIR2DL2 /// KIR2DL4 /// KIR2DL5A /// KIR2DL5B /// KIR2DS1 /// KIR2DS2 /// KIR2DS3 /// KIR2DS4 /// KIR3DL3 /// KIR3DL3 /// KIR3DS1 (11738374_at) / RFU C1QL1 (11718748_at) / Fold change /veh C1QL1 (11718748_at) / RFU TMPRSS4 (11747572_a_at) / Fold change /veh TMPRSS4 (11747572_a_at) / RFU HAMP (11756126_x_at) / Fold change /veh HAMP (11756126_x_at) / RFU RNFT2 (11725882_a_at) / Fold change /veh RNFT2 (11725882_a_at) / RFU NR4A2 (11747474_a_at) / Fold change /veh NR4A2 (11747474_a_at) / RFU ABCC12 (11746883_a_at) / Fold change /veh ABCC12 (11746883_a_at) / RFU TMEM136 (11760407_x_at) / Fold change /veh TMEM136 (11760407_x_at) / RFU CLDN22 /// WWC2 (11732394_at) / Fold change /veh CLDN22 /// WWC2 (11732394_at) / RFU HLA-DPB1 (11760878_x_at) / Fold change /veh HLA-DPB1 (11760878_x_at) / RFU SPINT1 (11716480_a_at) / Fold change /veh SPINT1 (11716480_a_at) / RFU GAP43 (11754022_s_at) / Fold change /veh GAP43 (11754022_s_at) / RFU A4GNT (11735810_at) / Fold change /veh A4GNT (11735810_at) / RFU PRB3 (11715151_x_at) / Fold change /veh PRB3 (11715151_x_at) / RFU TUBB4B (11761932_at) / Fold change /veh TUBB4B (11761932_at) / RFU CAPN14 (11732068_a_at) / Fold change /veh CAPN14 (11732068_a_at) / RFU TMCC2 (11721928_a_at) / Fold change /veh TMCC2 (11721928_a_at) / RFU IRGQ (11745062_a_at) / Fold change /veh IRGQ (11745062_a_at) / RFU FAM174B (11720279_a_at) / Fold change /veh FAM174B (11720279_a_at) / RFU TMPRSS4 (11748680_a_at) / Fold change /veh TMPRSS4 (11748680_a_at) / RFU FAM212B (11763350_a_at) / Fold change /veh FAM212B (11763350_a_at) / RFU PLEKHG5 (11743358_a_at) / Fold change /veh PLEKHG5 (11743358_a_at) / RFU ZSCAN30 (11745921_a_at) / Fold change /veh ZSCAN30 (11745921_a_at) / RFU CMKLR1 (11741424_a_at) / Fold change /veh CMKLR1 (11741424_a_at) / RFU LOC101060620 /// MAPK8IP1 (11723275_at) / Fold change /veh LOC101060620 /// MAPK8IP1 (11723275_at) / RFU SPTSSB (11747773_x_at) / Fold change /veh SPTSSB (11747773_x_at) / RFU PRSS12 (11739890_at) / Fold change /veh PRSS12 (11739890_at) / RFU BIN1 (11741810_x_at) / Fold change /veh BIN1 (11741810_x_at) / RFU WNT11 (11732464_a_at) / Fold change /veh WNT11 (11732464_a_at) / RFU C10orf10 (11716521_a_at) / Fold change /veh C10orf10 (11716521_a_at) / RFU C5orf56 (11738089_at) / Fold change /veh C5orf56 (11738089_at) / RFU CYB561 (11721691_x_at) / Fold change /veh CYB561 (11721691_x_at) / RFU ANKRD19P (11752326_a_at) / Fold change /veh ANKRD19P (11752326_a_at) / RFU OR2T12 /// OR2T33 /// OR2T8 (11738714_s_at) / Fold change /veh OR2T12 /// OR2T33 /// OR2T8 (11738714_s_at) / RFU VCAN (11748164_a_at) / Fold change /veh VCAN (11748164_a_at) / RFU JSRP1 (11732532_at) / Fold change /veh JSRP1 (11732532_at) / RFU KRTAP10-11 (11738290_x_at) / Fold change /veh KRTAP10-11 (11738290_x_at) / RFU MYO3A (11730013_a_at) / Fold change /veh MYO3A (11730013_a_at) / RFU EBF3 (11725865_a_at) / Fold change /veh EBF3 (11725865_a_at) / RFU CAMK2N1 (11719241_x_at) / Fold change /veh CAMK2N1 (11719241_x_at) / RFU C5orf56 (11738088_a_at) / Fold change /veh C5orf56 (11738088_a_at) / RFU OLFML3 (11715873_a_at) / Fold change /veh OLFML3 (11715873_a_at) / RFU LOC100653217 /// NTM (11731650_a_at) / Fold change /veh LOC100653217 /// NTM (11731650_a_at) / RFU MAPK11 (11762145_a_at) / Fold change /veh MAPK11 (11762145_a_at) / RFU FIZ1 (11724087_x_at) / Fold change /veh FIZ1 (11724087_x_at) / RFU OASL (11726364_x_at) / Fold change /veh OASL (11726364_x_at) / RFU SOX15 (11748057_x_at) / Fold change /veh SOX15 (11748057_x_at) / RFU CD79A (11719716_a_at) / Fold change /veh CD79A (11719716_a_at) / RFU HIST1H1D (11736915_at) / Fold change /veh HIST1H1D (11736915_at) / RFU CASKIN2 (11723855_a_at) / Fold change /veh CASKIN2 (11723855_a_at) / RFU LOC730098 (11760151_x_at) / Fold change /veh LOC730098 (11760151_x_at) / RFU OR4N2 (11742367_at) / Fold change /veh OR4N2 (11742367_at) / RFU PRRT2 (11749266_a_at) / Fold change /veh PRRT2 (11749266_a_at) / RFU SNX32 (11753110_a_at) / Fold change /veh SNX32 (11753110_a_at) / RFU CDHR5 (11726645_a_at) / Fold change /veh CDHR5 (11726645_a_at) / RFU RCAN1 (11760418_a_at) / Fold change /veh RCAN1 (11760418_a_at) / RFU FAM167A (11723789_a_at) / Fold change /veh FAM167A (11723789_a_at) / RFU FAM26E (11764081_at) / Fold change /veh FAM26E (11764081_at) / RFU ISYNA1 (11749810_s_at) / Fold change /veh ISYNA1 (11749810_s_at) / RFU ACY1 (11761880_at) / Fold change /veh ACY1 (11761880_at) / RFU 11764098_at / Fold change /veh 11764098_at / RFU SAMD14 (11745864_x_at) / Fold change /veh SAMD14 (11745864_x_at) / RFU NPB (11741838_a_at) / Fold change /veh NPB (11741838_a_at) / RFU TMPRSS6 (11731388_a_at) / Fold change /veh TMPRSS6 (11731388_a_at) / RFU KRTAP10-2 (11738614_at) / Fold change /veh KRTAP10-2 (11738614_at) / RFU ARHGAP8 /// PRR5-ARHGAP8 (11727945_x_at) / Fold change /veh ARHGAP8 /// PRR5-ARHGAP8 (11727945_x_at) / RFU KRTAP5-7 /// NADSYN1 (11734609_at) / Fold change /veh KRTAP5-7 /// NADSYN1 (11734609_at) / RFU RASL12 (11751679_a_at) / Fold change /veh RASL12 (11751679_a_at) / RFU CDKN2B (11736163_a_at) / Fold change /veh CDKN2B (11736163_a_at) / RFU PRF1 (11729649_at) / Fold change /veh PRF1 (11729649_at) / RFU, ZNF638 /// ZNF638-IT1 / Fold change vs veh, ZNF638 /// ZNF638-IT1 / RFU, PANK3 / Fold change vs veh, PANK3 / RFU, SH3YL1 / Fold change vs veh, SH3YL1 / RFU, ZEB2 / Fold change vs veh, ZEB2 / RFU, NRIP1 / Fold change vs veh, NRIP1 / RFU, PTTG1IP / Fold change vs veh, PTTG1IP / RFU, CAPN2 / Fold change vs veh, CAPN2 / RFU, MED14 / Fold change vs veh, MED14 / RFU, SNORA58 / Fold change vs veh, SNORA58 / RFU, C1orf63 / Fold change vs veh, C1orf63 / RFU, LRRFIP1 / Fold change vs veh, LRRFIP1 / RFU, NDUFAF7 / Fold change vs veh, NDUFAF7 / RFU, SLC12A2 / Fold change vs veh, SLC12A2 / RFU, IBTK / Fold change vs veh, IBTK / RFU, ESF1 / Fold change vs veh, ESF1 / Fold change vs veh, TMEM50B / RFU, TAOK1 / Fold change vs veh, TAOK1 / RFU, ACBD3 / Fold change vs veh, ACBD3 / RFU, TMA16 / Fold change vs veh, TMA16 / RFU, RWDD3 / Fold change vs veh, RWDD3 / RFU, BCAT1 / Fold change vs veh, BCAT1 / RFU, EDEM3 / Fold change vs veh, EDEM3 / RFU, TMEM33 / Fold change vs veh, TMEM33 / RFU, WDR75 / Fold change vs veh, WDR75 / RFU, AHCTF1 / Fold change vs veh, AHCTF1 / RFU, TFRC / Fold change vs veh, TFRC / RFU, ZDHHC17 / Fold change vs veh, ZDHHC17 / RFU, NOM1 / Fold change vs veh, NOM1 / RFU, ARL8B / Fold change vs veh, ARL8B / RFU, ZBTB11 / Fold change vs veh, ZBTB11 / RFU, TAMM41 / Fold change vs veh, TAMM41 / RFU, KIAA1704 /// LOC100996395 / Fold change vs veh, KIAA1704 /// LOC100996395 / RFU, ING1 / Fold change vs veh, ING1 / RFU, TRMT61B / Fold change vs veh, TRMT61B / RFU, FUBP3 / Fold change vs veh, FUBP3 / RFU, TP53 / Fold change vs veh, TP53 / RFU, TNKS2 / Fold change vs veh, TNKS2 / RFU, ZFP14 / Fold change vs veh, ZFP14 / RFU, ACTR2 / Fold change vs veh, ACTR2 / RFU, PPP3R1 / Fold change vs veh, PPP3R1 / RFU, PIK3R1 / Fold change vs veh, PIK3R1 / RFU, HNRNPA1 / Fold change vs veh, HNRNPA1 / RFU, RNF170 / Fold change vs veh, RNF170 / RFU, ZNF28 / Fold change vs veh, ZNF28 / RFU, RNGTT / Fold change vs veh, RNGTT / RFU, OGT / Fold change vs veh, OGT / RFU, BRD1 / Fold change vs veh, BRD1 / RFU, MARS / Fold change vs veh, MARS / RFU, ZNF655 / Fold change vs veh, ZNF655 / RFU, FAHD1 / Fold change vs veh, FAHD1 / RFU, BDP1 / Fold change vs veh, BDP1 / RFU, LRRCC1 / Fold change vs veh, LRRCC1 / RFU, ARID1A / Fold change vs veh, ARID1A / RFU, ZNF146 / Fold change vs veh, ZNF146 / RFU, ZNF330 / Fold change vs veh, ZNF330 / RFU, GPN3 / Fold change vs veh, GPN3 / RFU, C9orf123 / Fold change vs veh, C9orf123 / RFU, N4BP2L2 / Fold change vs veh, N4BP2L2 / RFU, ARFIP1 / Fold change vs veh, ARFIP1 / RFU, FAM179B / Fold change vs veh, FAM179B / RFU, BCL10 / Fold change vs veh, BCL10 / RFU, UHRF1BP1L / Fold change vs veh, UHRF1BP1L / RFU, BET1 / Fold change vs veh, BET1 / RFU, CNOT2 / Fold change vs veh, CNOT2 / RFU, ZNF268 / Fold change vs veh, ZNF268 / Fold change vs veh, ZNF507 / RFU, DGCR2 / Fold change vs veh, DGCR2 / RFU, WDSUB1 / Fold change vs veh, WDSUB1 / Fold change vs veh, HSP90B1 /// MIR3652 / RFU, ADSS / Fold change vs veh, ADSS / RFU, GK / Fold change vs veh, GK / RFU, ZNF148 / Fold change vs veh, ZNF148 / RFU, TAF9 / Fold change vs veh, TAF9 / RFU, SLC1A5 / Fold change vs veh, SLC1A5 / RFU, SLMO2 / Fold change vs veh, SLMO2 / RFU, ABCC4 / Fold change vs veh, ABCC4 / RFU, LOC101060439 /// RAP1B / Fold change vs veh, LOC101060439 /// RAP1B / RFU, RFX7 / Fold change vs veh, RFX7 / RFU, GTPBP10 / Fold change vs veh, GTPBP10 / RFU, CNEP1R1 / Fold change vs veh, CNEP1R1 / RFU, BIVM-ERCC5 /// ERCC5 / Fold change vs veh, BIVM-ERCC5 /// ERCC5 / RFU, ILF3 / Fold change vs veh, ILF3 / RFU 11762660_at / Fold change /veh 11762660_at / RFU VCAN (11757783_s_at) / Fold change /veh VCAN (11757783_s_at) / RFU DDX43 (11728927_at) / Fold change /veh DDX43 (11728927_at) / RFU KRT8 (11758188_x_at) / Fold change /veh KRT8 (11758188_x_at) / RFU NKD1 (11759106_at) / Fold change /veh NKD1 (11759106_at) / RFU SRD5A1 (11742802_a_at) / Fold change /veh SRD5A1 (11742802_a_at) / RFU TPSAB1 /// TPSB2 (11721975_s_at) / Fold change /veh TPSAB1 /// TPSB2 (11721975_s_at) / RFU GSTM3 (11746129_a_at) / Fold change /veh GSTM3 (11746129_a_at) / RFU IL23R (11737362_x_at) / Fold change /veh IL23R (11737362_x_at) / RFU TMEM51 (11727254_a_at) / Fold change /veh TMEM51 (11727254_a_at) / RFU PIWIL2 (11732686_x_at) / Fold change /veh PIWIL2 (11732686_x_at) / RFU ORM1 (11744905_x_at) / Fold change /veh ORM1 (11744905_x_at) / RFU CCDC152 (11743942_at) / Fold change /veh CCDC152 (11743942_at) / RFU ECM1 (11717891_a_at) / Fold change /veh ECM1 (11717891_a_at) / RFU IL23R (11748794_a_at) / Fold change /veh IL23R (11748794_a_at) / RFU TNFAIP8L3 (11732012_x_at) / Fold change /veh TNFAIP8L3 (11732012_x_at) / RFU MBOAT4 (11741988_at) / Fold change /veh MBOAT4 (11741988_at) / RFU 11764193_at / Fold change /veh 11764193_at / RFU TMEM53 (11763286_at) / Fold change /veh TMEM53 (11763286_at) / RFU MAGEB2 (11727129_at) / Fold change /veh MAGEB2 (11727129_at) / RFU TMEM200A (11744735_a_at) / Fold change /veh TMEM200A (11744735_a_at) / RFU CCDC152 (11751479_a_at) / Fold change /veh CCDC152 (11751479_a_at) / RFU FAM211A (11726209_a_at) / Fold change /veh FAM211A (11726209_a_at) / RFU RGS16 (11746705_a_at) / Fold change /veh RGS16 (11746705_a_at) / RFU VCAN (11755009_s_at) / Fold change /veh VCAN (11755009_s_at) / RFU RHOB (11743442_s_at) / Fold change /veh RHOB (11743442_s_at) / RFU RGS16 (11720943_a_at) / Fold change /veh RGS16 (11720943_a_at) / RFU RGS16 (11720944_at) / Fold change /veh RGS16 (11720944_at) / RFU, VPS4B / Fold change vs veh, VPS4B / RFU, CREB1 / Fold change vs veh, CREB1 / RFU, DNAJC13 / Fold change vs veh, DNAJC13 / RFU, GNAQ / Fold change vs veh, GNAQ / RFU, CDK5R1 / Fold change vs veh, CDK5R1 / RFU, ZRANB3 / Fold change vs veh, ZRANB3 / RFU, CUL4A / Fold change vs veh, CUL4A / RFU, CCNY / Fold change vs veh, CCNY / RFU, UFL1 / Fold change vs veh, UFL1 / RFU, COG3 / Fold change vs veh, COG3 / RFU, DIAPH2 / Fold change vs veh, DIAPH2 / RFU, SKA2 / Fold change vs veh, SKA2 / RFU, AFF3 / Fold change vs veh, AFF3 / RFU, LMF1 / Fold change vs veh, LMF1 / RFU, IPO11 / Fold change vs veh, IPO11 / RFU, DFFB / Fold change vs veh, DFFB / RFU, FOXP1 / Fold change vs veh, FOXP1 / RFU, CARD8 / Fold change vs veh, CARD8 / RFU, STRN3 / Fold change vs veh, STRN3 / RFU, ADK / Fold change vs veh, ADK / RFU, RASSF2 / Fold change vs veh, RASSF2 / RFU, WIPF1 / Fold change vs veh, WIPF1 / RFU, LARP1B / Fold change vs veh, LARP1B / RFU, RASA1 / Fold change vs veh, RASA1 / RFU, RB1 / Fold change vs veh, RB1 / RFU, PPFIA1 / Fold change vs veh, PPFIA1 / RFU, MAT2A / Fold change vs veh, MAT2A / RFU, CCT5 / Fold change vs veh, CCT5 / RFU, WDR92 / Fold change vs veh, WDR92 / RFU, CUX1 / Fold change vs veh, CUX1 / RFU, TTC7A / Fold change vs veh, TTC7A / RFU, TMEM135 / Fold change vs veh, TMEM135 / RFU, DEPTOR / Fold change vs veh, DEPTOR / RFU, CPM / Fold change vs veh, CPM / RFU, DNAJB6 / Fold change vs veh, DNAJB6 / RFU, CACNA2D3 / Fold change vs veh, CACNA2D3 / RFU, DTX4 / Fold change vs veh, DTX4 / RFU, TFCP2 / Fold change vs veh, TFCP2 / RFU, GMCL1 /// GMCL1P1 / Fold change vs veh, GMCL1 /// GMCL1P1 / RFU, AEBP2 / Fold change vs veh, AEBP2 / RFU, SNHG1 /// SNORD22 /// SNORD25 /// SNORD26 /// SNORD27 /// SNORD28 /// SNORD29 /// SNORD31 / Fold change vs veh, SNHG1 /// SNORD22 /// SNORD25 /// SNORD26 /// SNORD27 /// SNORD28 /// SNORD29 /// SNORD31 / Fold change (Aza/veh), C12orf56 (ProbeSet 11735607_a_at) / Fold change (ACY-1035/veh), C12orf56 (ProbeSet 11735607_a_at) / Fold change (Aza/veh), FGFR1OP (ProbeSet 11751329_s_at) / Fold change (ACY-1035/veh), FGFR1OP (ProbeSet 11751329_s_at) / Fold change (Aza/veh), VPS36 (ProbeSet 11739960_a_at) / Fold change (ACY-1035/veh), VPS36 (ProbeSet 11739960_a_at) / RFU SYPL1 (11715823_x_at) / Fold change /veh SYPL1 (11715823_x_at) / RFU IGFBP7 (11715501_s_at) / Fold change /veh IGFBP7 (11715501_s_at) / RFU REEP3 (11722064_at) / Fold change /veh REEP3 (11722064_at) / RFU IGLL1 (11728026_x_at) / Fold change /veh IGLL1 (11728026_x_at): dose or concentration left out as unconfirmed.

`Nc1ncn([C@@H]2O[C@H](CO)[C@@H](O)[C@H]2O)c(=O)n1` [azacitidine]: the “RFU 11764193_at” value came out at 40.50 RFU.
